Measured values reported in PubChem BioAssay (NCI).
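1) Cells in 96-well plates. 2) Compound, 48 h, 5 concentrations. 3) Linear interpolation between surrounding doses. 4) Unreached endpoint = highest concentration. At the TGI there is no net growth.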

How the values were obtained:
Test in all cases: DTP human tumour cell line panel, 48 h
[1] = test system: COLO 205 colon
[2] = test system: HS 578T breast
[3] = test system: NCI-H23 lung
[4] = test system: TK-10 renal
[5] = test system: SN12C renal
[6] = test system: DU-145 prostate
[7] = test system: NCI-H522 lung
[8] = test system: NCI/ADR-RES ovarian
[9] = test system: OVCAR-8 ovarian
[10] = test system: HOP-62 NSCLC
[11] = test system: A549 NSCLC
[12] = test system: OVCAR-5 ovarian
[13] = test system: A498 renal
[14] = test system: CCRF-CEM leukemia
[15] = test system: HT29 colon
[16] = test system: IGROV1 ovarian
[17] = test system: LOX IMVI melanoma
[18] = test system: SF-268 CNS
[19] = test system: KM12 colon
[20] = test system: SNB-75 CNS
[21] = test system: U251 CNS
[22] = test system: CAKI-1 renal
[23] = test system: MDA-MB-231 breast
[24] = test system: T-47D breast
[25] = test system: SK-OV-3 ovarian
[26] = test system: SK-MEL-5 melanoma
[27] = test system: NCI-H460 lung
[28] = test system: NCI-H226 lung
[29] = test system: BT-549 breast
[30] = test system: ACHN renal
[31] = test system: MDA-MB-435
[32] = test system: HCT-15 colon
[33] = test system: SF-295 CNS
[34] = test system: MOLT-4 leukemia
[35] = test system: RXF 393 renal
[36] = test system: HL-60(TB) leukemia
[37] = test system: HOP-92 NSCLC
[38] = test system: SNB-19 CNS
[39] = test system: K-562 leukemia
[40] = test system: HCT-116 colon
[41] = test system: OVCAR-4 ovarian
[42] = test system: PC-3 prostate
[43] = test system: SR leukemia
[44] = test system: SF-539 CNS
[45] = test system: RPMI-8226 leukemia
[46] = test system: HCC-2998 colon
[47] = test system: UACC-62 melanoma
[48] = test system: MDA-N
[49] = test system: SW-620 colon
[50] = test system: MALME-3M melanoma
[51] = test system: OVCAR-3 ovarian
[52] = test system: 786-0 renal
[53] = test system: UO-31 renal
[54] = test system: UACC-257 melanoma
[55] = test system: SK-MEL-28 melanoma
[56] = test system: MCF7 breast
[57] = test system: SK-MEL-2 melanoma
[58] = test system: EKVX NSCLC
[59] = test system: M14 melanoma

Measured: TGI

CC(C)(C)OC(=O)NCC(=O)NC1CC=CCC1NC(=O)CNC(=O)OC(C)(C)C (centres undefined)
> 100 µM: [1] | [2] | [3] | [4] | [5] | [6] | [7] | [8] | [9] | [10] | [11] | [12] | [13] | [14] | [15] | [16] | [17] | [18] | [19] | [20] | [21] | [22] | [23] | [24] | [25] | [26] | [27] | [28] | [29] | [30] | [31] | [32] | [33] | [34] | [35] | [36] | [37] | [38] | [39] | [40] | [41] | [42] | [43] | [44] | [45] | [46] | [47] | [48] | [49] | [50] | [51] | [52] | [53] | [54] | [55] | [56]

CCCCCCCCCCCCCCCCOCC(Cl)CP(=O)(O)OP(=O)(O)OCC1OC(n2cnc3c(N)ncnc32)C(O)C1O (centres undefined)
> 100 µM: [1] | [2] | [3] | [4] | [5] | [6] | [7] | [8] | [57] | [9] | [10] | [11] | [12] | [13] | [14] | [15] | [16] | [17] | [18] | [19] | [20] | [21] | [22] | [23] | [24] | [25] | [26] | [27] | [28] | [58] | [29] | [30] | [31] | [32] | [34] | [35] | [36] | [37] | [38] | [39] | [40] | [41] | [42] | [43] | [44] | [46] | [59] | [47] | [48] | [49] | [50] | [51] | [52] | [53] | [54] | [55] | [56]

FC(F)(F)c1ccc2c(c1)nc(-c1ccccc1)n2CC1CCCN2CCCCC12 (centres undefined)
38.8 µM: [56]
36.2 µM: [48]
49.2 µM: [43]
56.2 µM: [21]
50.8 µM: [20]
34.1 µM: [42]
39.3 µM: [27]
37.9 µM: [9]
28.7 µM: [7]
69.1 µM: [13]
31.2 µM: [47]
40.1 µM: [51]
> 100 µM: [6] | [10] | [11] | [22] | [58] | [34] | [38] | [41] | [45]
31.9 µM: [59]
30.6 µM: [40]
34.9 µM: [29]
32.3 µM: [46]
42.3 µM: [31]
28.1 µM: [26]
29.4 µM: [23]
69.9 µM: [49]
38.5 µM: [15]
71.7 µM: [24]
56.5 µM: [30]
33.8 µM: [36]
33.5 µM: [18]
50.4 µM: [16]
37.3 µM: [25]
65.8 µM: [37]
35.3 µM: [55]
1.16 µM: [53]
75.5 µM: [35]
31 µM: [44]
26.3 µM: [1]
64 µM: [32]
31.8 µM: [54]
29.1 µM: [17]
34.3 µM: [8]
27.2 µM: [50]
45.5 µM: [5]
58.3 µM: [39]
65.9 µM: [28]
33.9 µM: [2]
31.7 µM: [33]
66.5 µM: [19]
41.8 µM: [4]
30.7 µM: [52]
29.3 µM: [57]
